From patent publication US7645781B2, “N-aryl-2-oxazolidinone-5-carboxamides and their derivatives” (Pfizer Inc, priority 2002, dated 2010)
≈ marks a conversion by molar mass, not a printed value.

What was measured:
[1] = tested on: Staphylococcus aureus (SAUR 9213); assay: MIC by standard agar dilution method; type: cell-based; conditions: Mueller Hinton agar, incubated overnight at 35° C., read-out: MIC
From the text: The antibacterial agents of this invention have useful activity against a variety of organisms. The in vitro activity of compounds of this invention can be assessed by standard testing procedures such as the determination of minimum inhibitory concentration (MIC) by agar dilution as described in “Approved Standard. Methods for Dilution Antimicrobial Susceptibility Tests for Bacteria That Grow Aerobically”, 3rd. ed., published 1993 by the National Committee for Clinical Laboratory Standards, Villanova, Pa., USA. The in vitro MICs of test compounds are determined by a standard agar dilution method. A stock drug solution of each analog is prepared in the preferred solvent, usually DMSO:H2O (1:3). Serial 2-fold dilutions of each sample are made using 1.0 ml aliquots of sterile distilled water. To each 1.0 ml aliquot of drug is added 9 ml of molten Mueller Hinton agar medium. The drug-supplemented agar is mixed, poured into 15×100 mm petri dishes, and allowed to solidify and dry prior to inoculation. Vials of each of the test organisms are maintained frozen in the vapor phase of a liquid nitrogen freezer. Test cultures are grown overnight at 35° C. on the medium appropriate for the organism. Colonies are harvested with a sterile swab, and cell suspensions are prepared in Trypticase Soy broth (TSB) to equal the turbidity of a 0.5 McFarland standard. A 1:20 dilution of each suspension is made in TSB. The plates containing the drug supplemented agar are inoculated with a 0.001 ml drop of the cell suspension using a Steers replicator, yielding approximately 10^4 to 10^5 cells per spot. The plates are incubated overnight at 35° C. Following incubation the Minimum Inhibitory Concentration (MIC μg/ml), the lowest concentration of drug that inhibits visible growth of the organism, is read and recorded.

Row | Compound | MIC [1] [mg/L] | melting point
1 | NC(=O)[C@H]1CN(c2cc(F)c(C3CCS(=O)(=O)CC3)c(F)c2)C(=O)O1 [Example 45, (5R)-3-[3,5-Difluoro-4-(Tetrahydro-2H-thiopyran-4-yl)phenyl]-2-oxo-5-oxazolidinecarboxamide S,S-dioxide] | 4 (≈ 10.7 µM) | 243 to 245 °C
2 | Cn1c(=O)sc2cc(N3C[C@H](C(N)=O)OC3=O)ccc21 [Example 29, (5R)-(−)-3-(2,3-Dihydro-3-methyl-2-oxo-6-benzothiazolyl)-2-oxo-5-oxazolidinecarboxamide] | 1 (≈ 3.41 µM) | 274 to 276 °C (dec.)
3 | NC(=O)[C@H]1CN(c2cc(F)c(N3CCS(=O)(=O)CC3)c(F)c2)C(=O)O1 [Example 15, (5R)-(−)-3-[4-(Thiomorpholin-4-yl)-3,5-difluorophenyl]-2-oxo-5-oxazolidinecarboxamide S,S-dioxide] | 2 (≈ 5.33 µM) | 245 to 248 °C (dec.)
4 | NC(=O)[C@H]1CN(c2ccc(N3CCOCC3)c(F)c2)C(=O)O1 [Example 1, (5R)-(−)-3-[3-Fluoro-4-(4-morpholinyl)phenyl]-2-oxo-5-oxazolidinecarboxamide] | 4 (≈ 12.9 µM) | 185 to 187 °C (dec.)
5 | NC(=O)[C@H]1CN(c2cc(F)c(N3CCOCC3)c(F)c2)C(=O)O1 [Example 17, (5R)-(−)-3-[3,5-Difluoro-4-(4-morpholinyl)phenyl]-2-oxo-5-oxazolidinecarboxamide] | 4 (≈ 12.2 µM) | 181 to 183 °C
6 | CNC(=O)[C@H]1CN(c2cc(F)c3c(c2)CCC(=O)N3C)C(=O)O1 [Example 83, (5R)-N-Methyl-3-(8-fluoro-1-methyl-2-oxo-1,2,3,4-tetrahydroquinolin-6-yl)-2-oxo-5-oxazolidinecarboxamide] | 2 (≈ 6.22 µM) | 264 to 265 °C
7 | NC(=O)[C@H]1CN(c2cc(F)c([C@H]3CC[S@@+]([O-])CC3)c(F)c2)C(=O)O1 [Example 46, (5R)-(−)-3-[3,5-Difluoro-4-(cis-tetrahydro-1-oxido-2H-thiopyran-4-yl)phenyl]-2-oxo-5-oxazolidinecarboxamide] | 8 (≈ 22.3 µM) | 283 to 285 °C (dec.)
8 | CNC(=O)[C@H]1CN(c2ccc(N3Cc4cccnc4C3)c(F)c2)C(=O)O1 [Example 55, (5R)-N-Methyl-3-[4-(5,7-dihydro-6H-pyrrolo[3,4-b]pyridin-6-yl)-3-fluorophenyl]-2-oxo-5-oxazolidinecarboxamide] | 1 (≈ 2.81 µM) | 275 °C (dec.)
9 | NC(=O)[C@H]1CN(c2ccc(N3CCS(=O)(=O)CC3)c(F)c2)C(=O)O1 [Example 20, (5R)-(−)-3-[3-Fluoro-4-(thiomorpholin-4-yl)phenyl]-2-oxo-5-oxazolidinecarboxamide S,S-dioxide] | 4 (≈ 11.2 µM) | 245 to 247 °C (dec.)
10 | CNC(=O)[C@H]1CN(c2cc(F)c(N3CCOCC3)c(F)c2)C(=O)O1 [Example 42, (5R)-(−)-N-Methyl-3-[3,5-difluoro-4-(4-morpholinyl)phenyl]-2-oxo-5-oxazolidinecarboxamide] | 4 (≈ 11.7 µM) | 179 to 181 °C
11 | CNC(=O)[C@H]1CN(c2ccc3c(c2)sc(=O)n3C(C)C)C(=O)O1 [Example 37, (5R)-(−)-N-Methyl-3-(2,3-dihydro-3-isopropyl-2-oxo-6-benzothiazolyl)-2-oxo-5-oxazolidinecarboxamide] | 2 (≈ 5.96 µM) | 172 to 173.5 °C
12 | NC(=O)[C@H]1CN(c2ccc(C3=CC[S+]([O-])CC3)c(F)c2)C(=O)O1 (stereo partly drawn) [Example 11, (5R)-3-[4-(3,6-Dihydro-2H-thiopyran-4-yl)-3-fluorophenyl]-2-oxo-5-oxazolidinecarboxamide S-oxide] | 4 (≈ 11.8 µM) | 182 to 184 °C (dec.)
13 | NC(=O)[C@H]1CN(c2ccc(N3CCN(C(=O)CO)CC3)c(F)c2)C(=O)O1 [Example 14, (5R)-(−)-3-[3-Fluoro-4-[4-(hydroxyacetyl)-1-piperazinyl]phenyl]-2-oxo-5-oxazolidinecarboxamide] | 4 (≈ 10.9 µM) | 232 to 235 °C (dec.)
14 | O=C(NO)[C@H]1CN(c2ccc(N3CCOCC3)c(F)c2)C(=O)O1 [Example 6, (5R)-(−)-3-[3-Fluoro-4-(4-morpholinyl)phenyl]-N-hydroxy-2-oxo-5-oxazolidinecarboxamide] | 16 (≈ 49.2 µM) | 141 to 143 °C
15 | C=CCNC(=O)[C@H]1CN(c2ccc(N3CCOCC3)c(F)c2)C(=O)O1 [Example 3, (5R)-(−)-3-[3-Fluoro-4-(4-morpholinyl)phenyl]-N-allyl-2-oxo-5-oxazolidinecarboxamide] | 8 (≈ 22.9 µM) | 167 to 169 °C
16 | CCNC(=O)[C@H]1CN(c2ccc3c(c2)sc(=O)n3C)C(=O)O1 [Example 33, (5R)-(−)-N-Ethyl-3-(2,3-dihydro-3-methyl-2-oxo-6-benzothiazolyl)-2-oxo-5-oxazolidinecarboxamide] | 4 (≈ 12.4 µM) | 224.5 to 226 °C
17 | NC(=O)[C@H]1CN(c2ccc(C3CCOCC3)c(F)c2)C(=O)O1 [Example 10, (5R)-(−)-3-[4-(Tetrahydro-2H-pyran-4-yl)-3-fluorophenyl]-2-oxo-5-oxazolidinecarboxamide] | 4 (≈ 13 µM) | 153 to 156 °C
18 | CCn1c(=O)oc2cc(N3C[C@H](C(N)=O)OC3=O)ccc21 [Example 39, (5R)-(−)-3-(2,3-Dihydro-3-ethyl-2-oxo-6-benzoxazolyl)-2-oxo-5-oxazolidinecarboxamide] | 1 (≈ 3.43 µM) | 234 to 236 °C
19 | NC(=O)[C@H]1CN(c2ccc(C3=NNC(=O)CS3)c(F)c2)C(=O)O1 [Example 64, (5R)-3-[3-Fluoro-4-(5-oxo-5,6-dihydro-4H-[1,3,4]thiadiazin-2-yl)phenyl]-2-oxo-5-oxazolidinecarboxamide] | 0.5 (≈ 1.48 µM) | 249 to 251 °C
20 | NC(=O)[C@H]1CN(c2ccc(-c3cccnc3)c(F)c2)C(=O)O1 [Example 7, (5R)-(−)-3-[4-(3-Pyridyl)-3-fluorophenyl]-2-oxo-5-oxazolidinecarboxamide] | 2 (≈ 6.64 µM) | 240 to 242 °C (dec.)
21 | C[C@@H]1Cc2cc(N3C[C@H](C(N)=O)OC3=O)ccc2N1C(=O)CO [Example 50, (5R)-3-[(2R)-2,3-Dihydro-1-(hydroxyacetyl)-2-methyl-1H-indol-5-yl]-2-oxo-5-oxazolidinecarboxamide] | 2 (≈ 6.26 µM) | 198 to 200 °C
22 | NC(=O)[C@H]1CN(c2ccc(N3CC[S+]([O-])CC3)c(F)c2)C(=O)O1 [Example 21, (5R)-(−)-3-[3-Fluoro-4-(thiomorpholin-4-yl)phenyl]-2-oxo-5-oxazolidinecarboxamide S-oxide] | 8 (≈ 23.4 µM) | 264 to 266 °C (dec.)
23 | Cn1c(=O)oc2cc(N3C[C@H](C(N)=O)OC3=O)ccc21 [Example 38, (5R)-(−)-3-(2,3-dihydro-3-methyl-2-oxo-6-benzoxazolyl)-2-oxo-5-oxazolidinecarboxamide] | 1 (≈ 3.61 µM) | > 260 °C
24 | CNC(=O)[C@H]1CN(c2cc(F)c(N3CC[S+]([O-])CC3)c(F)c2)C(=O)O1 [Example 43, (5R)-(−)-N-Methyl-3-[3,5-difluoro-4-(thiomorpholin-4-yl)phenyl]-2-oxo-5-oxazolidinecarboxamide S-oxide] | 4 (≈ 10.7 µM) | 237 to 241 °C
25 | Cn1c(=O)sc2cc(N3C[C@H](C(=O)NCCF)OC3=O)ccc21 [Example 35, (5R)-N-(2-Fluoroethyl)-3-(2,3-dihydro-3-methyl-2-oxo-6-benzothiazolyl)-2-oxo-5-oxazolidinecarboxamide] | 2 (≈ 5.89 µM) | 201 to 203 °C
26 | CCCNC(=O)[C@H]1CN(c2ccc(N3CCOCC3)c(F)c2)C(=O)O1 [Example 4, (5R)-(−)-3-[3-Fluoro-4-(4-morpholinyl)phenyl]-N-propyl-2-oxo-5-oxazolidinecarboxamide] | 16 (≈ 45.5 µM) | 165 to 167 °C
27 | CNC(=O)[C@H]1CN(c2cc(F)c(N3CCS(=O)(=O)CC3)c(F)c2)C(=O)O1 [Example 44, (5R)-(−)-N-Methyl-3-[3,5-difluoro-4-(thiomorpholin-4-yl)phenyl]-2-oxo-5-oxazolidinecarboxamide S,S-dioxide] | 4 (≈ 10.3 µM) | 243 to 246 °C
28 | CCNC(=O)[C@H]1CN(c2cc(F)c(N3C=CC(=O)CC3)c(F)c2)C(=O)O1 [Example 78, (5R)-N-Ethyl-3-[4-(4-oxo-3,4-dihydro-1(2H)-pyridinyl)-3,5-difluorophenyl]-2-oxo-5-oxazolidinecarboxamide] | 8 (≈ 21.9 µM) | –
29 | CCNC(=O)[C@H]1CN(c2ccc(N3C=CC(=O)CC3)cc2)C(=O)O1 [Example 74, (5R)-N-Ethyl-3-[4-(4-oxo-3,4-dihydro-1(2H)-pyridinyl)phenyl]-2-oxo-5-oxazolidinecarboxamide] | 8 (≈ 24.3 µM) | –
30 | NC(=O)[C@H]1CN(c2ccc(C3CCS(=O)(=O)CC3)c(F)c2)C(=O)O1 [Example 28, (5R)-3-[4-(Tetrahydro-2H-thiopyran-4-yl)-3-fluorophenyl]-2-oxo-5-oxazolidinecarboxamide S,S-dioxide] | – | 231 to 234 °C (dec.)
